Test results taken from EP1604970A1, “2-(Biphenyl-3-yl)-carboxylic acids of gamma-secretase-modulating activity” (CELLZOME AG, priority 2004, dated 2005).

System: γ-secretase
Assay: Screening for γ-secretase-modulating activity in SKN neuroblastoma cells carrying the APP "swedish mutation" (assay of Citron et al 1997)
Type: cell-based
Conditions: not given
Experimental: Screening was carried out using SKN neuroblastoma cells carrying the APP-"swedish mutation" (point mutation at 695 of APP) grown in DMEM/NUT-mix F12 (HAM) provided by Gibco (cat no. 31330-38) containing 5% Serum/Fe supplemented with 1% non-essential amino acids, 100 U/ml Pen/Strep. Cells were grown to near confluency. The screening was performed using the assay as described in Citron et al (1997), Nature Medicine. Vol 3: 67-72

Row | SMILES | IC50 [µM]
1 | CC(C(=O)O)c1cccc(-c2ccc(OC(F)(F)F)cc2)c1 (stereo not drawn) [2-(4'-Trifluoromethoxy-biphenyl-3-yl)-propionic acid] | 75
2 | O=C(O)Cc1cccc(-c2ccc(C(F)(F)F)cc2)c1 [(4'-Trifluoromethyl-biphenyl-3-yl)-acetic acid] | 84
3 | C[C@@H](C(=O)O)c1ccc(-c2ccccc2)c(F)c1 [R-Flurbiprofen, reference compound] | 247

Now those with a lower IC50, led by results:

Row | IC50 [µM] | SMILES
4 | 41 | CC(C(=O)O)c1cccc(-c2ccc(Cl)cc2)c1 (stereo not drawn) [2-(4'-Chloro-biphenyl-3-yl)-propionic acid]
5 | 24 | CC(C(=O)O)c1cccc(-c2ccc(C(F)(F)F)cc2)c1 (stereo not drawn) [2-(4'-Trifluoromethyl-biphenyl-3-yl)-propionic acid]

Biological target: T1, cyclooxygenase-1 (Cox-1) (Ovis aries, UniProt P05979)
T1 construct: purchased Cayman Chemical Company 760111
T1 sequence (P05979 25-600): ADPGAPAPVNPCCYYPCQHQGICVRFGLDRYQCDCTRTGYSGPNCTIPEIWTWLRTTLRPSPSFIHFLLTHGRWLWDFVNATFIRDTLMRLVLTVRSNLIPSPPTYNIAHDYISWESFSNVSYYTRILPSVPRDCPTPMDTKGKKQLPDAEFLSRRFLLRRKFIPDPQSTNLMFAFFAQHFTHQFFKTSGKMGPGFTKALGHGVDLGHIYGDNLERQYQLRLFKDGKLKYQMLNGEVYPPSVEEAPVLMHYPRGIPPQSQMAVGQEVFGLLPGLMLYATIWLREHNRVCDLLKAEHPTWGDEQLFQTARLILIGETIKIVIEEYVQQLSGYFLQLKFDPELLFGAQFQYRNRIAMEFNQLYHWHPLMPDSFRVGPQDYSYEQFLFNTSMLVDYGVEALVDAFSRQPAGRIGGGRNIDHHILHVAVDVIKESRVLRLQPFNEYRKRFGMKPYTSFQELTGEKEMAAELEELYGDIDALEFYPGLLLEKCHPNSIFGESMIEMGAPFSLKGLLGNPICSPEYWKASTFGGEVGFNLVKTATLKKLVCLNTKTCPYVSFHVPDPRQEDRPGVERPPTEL
Assay: Colorimetric Cox inhibitor screening assay (Cayman Chemical, Cat. No. 760111)
Type: biochemical
Conditions: at concentrations of up to 300uM
Experimental: Inhibition of Cox-1 was determined using the Colorimetric Cox inhibitor screening assay provided by Cayman Chemical Company, Ann Arbor, MI, USA. (Cat. No. 760111) according to manufacturer's instructions. Exemplary studies were carried out using 2-(4'-trifluoromethyl-biphenyl-3-yl)-propionic acid.

Row | effect on the Cox-1 activity | SMILES
6 | No significant effect | CC(C(=O)O)c1cccc(-c2ccc(C(F)(F)F)cc2)c1 (stereo not drawn) [2-(4'-Trifluoromethyl-biphenyl-3-yl)-propionic acid]
